Test [1] concerns cDDP-resistant C13* subline. The test is described as follows: Cell growth assay (crystal violet dye), C13* cells. The test is classed as cell-based, human. To be noted: read-out: IC50 (cell growth inhibition). The method, then: (§1) For the determination of the in vitro antitumour activities, the compounds of the invention were assayed in a panel of sensible, resistant and refractary tumour cell lines, which are only exemplary for the antitumour activity of the inventive compounds, and are not to be construed as limiting their antitumour activities only to the cell lines set forth herein. Cell lines. The 2008 cell line was established from a patient with serous cystadenocarcinoma of the ovary and the cDDP-resistant C13* subline, about 15-fold resistant to cDDP, was derived from the parent 2008 cell line by monthly exposure to cDDP, followed by chronic exposure to step-wise increases in cDDP concentration (Cancer Research 52, 1895, 1992). The cell lines were grown as monolayers in RPMI 1640 medium containing 10% heat-inactivated fetal bovine serum and 50 μg/mL gentamycin sulfate. All cell media and serum were purchased from (Lonza, Verviers, Belgium). Cultures were equilibrated with humidified 5% CO2 in air at 37° C. All studies were performed in Mycoplasma negative cells, as routinely determined with the MycoAlert Mycoplasma detection kit (Lonza, Walkersville, Md., USA).
(§2) Cell growth assay. Cell growth was determined by a modification of the crystal violet dye assay (Analytical biochemistry, 182, 16 1989). On selected days, after removal of the tissue culture medium, the cell monolayer was fixed with methanol prior to staining with 0.2% crystal violet solution in 20% methanol for at least 30 minutes. After washing several times with distilled water to remove the dye excess, the cells were let to dry. The incorporated dye was solubilized in acidic isopropanol (1N HCl : 2-propanol, 1:10). After appropriate dilution, dye was determined spectrophotometrically at 540 nm. The extracted dye was proportional to cell number. Percentage of cytotoxicity was calculated by comparing the absorbance of cultures exposed to the compounds of the invention to non-exposed (control) cultures. Percentage of cytotoxicity is here reported as the half maximal inhibitory concentration (IC50), which is a measure of the effectiveness of a compound of the invention in inhibiting cell growth by half with respect to control (100%).

For test [2], the system named is 2008 cell line (serous cystadenocarcinoma of the ovary). The test is described as follows: Cell growth assay (crystal violet dye), 2008 cells. The test is classed as cell-based, human. To be noted: read-out: IC50 (cell growth inhibition). The method, then: as §1, §2
The subject of the next test is HeLa cells. The test is described as follows: Cell proliferation MTT assay, HeLa. The class given is cell-based. To be noted: Homo sapiens, 24 h, read-out: MTT cell proliferation, percentage compared to control cells considered as 100%; for activity at 1 µM: compound at 1 uM; for activity at 10 µM: compound at 10 uM. The method, then:
(§3) Cell cultures and treatments. Human tumor cells (HeLa from uterin cervix and HCT116 from colon carcinoma) were grown at 37° C. in humidified atmosphere containing 5% CO2 in D-MEM supplemented with 10% FCS, 4 mM glutamine, 2 mM Na pyruvate, 100 U/mL penicillin and 0.1 mg/mL streptomycin (all reagents were from Celbio, Pero, Italy). HeLa cells are the most widely used human tumor cell line; HCT 116 colon carcinoma cell line has proven to be extremely resistant to conventional chemotherapy. Cells were treated with the compounds of the invention at a fixed dose of 10 uM for 24 h, eventually followed by 24 of recovery in drug free medium. As a positive control of growth inhibition, cells were treated with 10 uM etoposide. Some of the inventive were also assayed at a dose of 1 uM.
(§4) Cell proliferation assays—MTT assay. Cells are seeded in 96 multiwell-plates at the density of 10^3/100 μl (except fibroblasts that are seeded at the density of 1.5×10^3/100 μl). Cells are treated 24 h later with the drug for 24 h eventually followed by 24 h of recovery in drug-free medium. At the end of the treatments, 20 μl of CellTiter 96 Non-Radioactive Cell Proliferation Assay (MTT; Promega, Milano, Italy) are added to each well. Plates are then incubated for 4 h at 37° C. in the dark and analyzed with a reader of microplates (Gio. De Vita, Roma, Italy) at 492 nm. Experiments are performed in quadruplicate and repeated three times. Data are expressed in the following Tables 2a-c as the percentage compared to control cells considered as 100%.

Test [3] has as its system HCT 116 colon carcinoma cell line. The test is described as follows: Cell proliferation MTT assay, HCT 116. The test is classed as cell-based. To be noted: Homo sapiens, HCT-116, 24 h, read-out: MTT cell proliferation, percentage compared to control cells considered as 100%; for activity at 1 µM: HCT 116, compound at 1 uM, 24 h exposure; for activity at 10 µM: HCT 116, compound at 10 uM. Here is the method: as §3, §4

In test [4] the test system is cisplatin resistant A2780 cells (A2780/CP). The test is described as follows: Cell growth assay (crystal violet dye), A2780/CP cells. The test is classed as cell-based, human. To be noted: 72 hrs exposure, read-out: IC50 (cell growth inhibition). Here is the method: (§5) The human ovarian cancer cell line A2780 and a platinum-resistant subline selected in vitro by stepwise increases of cisplatin concentration in the medium were from University of Modena and Reggio Emilia. The cisplatin resistant A2780 cells were challenged weekly with 50 uM cisplatin for 1 hr. Both cell lines were maintained in RPMI 1640 medium with 10% (vol/vol) fetal calf serum, penicillin (62.9 mg/L), and streptomycin (100 mg/L) (GIBCO).
as §2

The test system of test [5] is human ovarian cancer cell line A2780. The test is described as follows: Cell growth assay (crystal violet dye), A2780 cells. The class given is cell-based. To be noted: 72 hrs exposure, read-out: IC50 (cell growth inhibition). Here is the method:
as §5, §2

[6] abbreviates: Homo sapiens, C13* cells, 72 hrs exposure.
The mark [7] stands for this setting: Homo sapiens, 2008 cells, 72 hrs exposure.
The mark [8] stands for this setting: 24 h + 24 h recovery in drug-free medium.

Where two headings read alike, the source gives them in different places.

With `O=c1[nH]cc(F)c(=O)[nH]1` [5-FU, 5-fluoro-2,4(1H,3H)-pyrimidinedione, reference compound], the IC50 in test [1] (setting [6]) came out at 8000 nM; in test [2] (setting [7]), 10000 nM.

Take `COc1ccc2cc3[n+](cc2c1OC)CCc1cc2c(cc1-3)OCO2` [Berberine, 9,10-dimethoxy-5,6-dihydrobenzo[g]-1,3-benzodioxolo[5,6-a]quinolizinium chloride, reference compound]: the activity at 1 µM in the test on HeLa cells (setting [8]) came out at 168%; in the test on HeLa cells, 178%; in test [3], 201%. In addition, the activity at 10 µM in the test with HeLa cells (setting [8]) came out at 92.9%; with HeLa cells it was 121%; in test [3] (setting [8]), 93.3%; in test [3] (24 h) it was 166%. Moreover, the 50% inhibitory concentration (IC50) in test [1] (Homo sapiens, C13, 72 h) came out at 6000 nM; in test [2] (Homo sapiens, 72 h) it was 10000 nM; in test [4] (Homo sapiens, A2780C/P), 2500 nM; in test [5] (Homo sapiens) it was 4000 nM.

On to `COc1cc([C@@H]2c3cc4c(cc3[C@@H](O[C@@H]3O[C@@H]5CO[C@@H](C)O[C@H]5[C@H](O)[C@H]3O)[C@H]3COC(=O)[C@H]23)OCO4)cc(OC)c1O` [Etoposide, 4′-demethylepipodophyllotoxin 9-[4,6-O-ethylidene-beta-D-glucopyranoside], reference compound], for which the activity at 1 µM in the test on HeLa cells (setting [8]) amounted to 59.5%; with HeLa cells, 94.3%; in test [3] it was 139%. Also, the activity at 10 µM turned out to be 1% with HeLa cells (setting [8]), 74.8% in the test with HeLa cells, 96.2% in test [3] (setting [8]) and 104% in test [3] (24 h).

For `COc1ccc2c(CCCc3ccccc3)c3[n+](cc2c1OC)CCc1cc2c(cc1-3)OCO2` [NAX012, 13-(3-phenylpropyl)-9,10-dimethoxy-5,6-dihydrobenzo[g]-1,3-benzodioxolo[5,6-a]quinolizinium iodide], the activity at 10 µM in the test with HeLa cells (setting [8]) came out at 41.3%; with HeLa cells, 72.4%; in test [3] (setting [8]) it was 34.8%; in test [3] (24 h), 0%. Also, the IC50 in test [1] (setting [6]) was 2200 nM; in test [2] (setting [7]), 3600 nM; in test [4] (Homo sapiens, A2780C/P) it was 600 nM; in test [5] (Homo sapiens), 600 nM. Also, the activity at 1 µM in test [3] was determined as 52.1%.

For the molecule `COc1ccc(CCc2c3[n+](cc4c(OC)c(OC)ccc24)CCc2cc4c(cc2-3)OCO4)cc1` [NAX013, 13-[2-(4-methoxyphenyl)ethyl]-9,10-dimethoxy-5,6-dihydrobenzo[g]-1,3-benzodioxolo[5,6-a]quinolizinium iodide], the activity at 10 µM in the test on HeLa cells (setting [8]) worked out at 60.8%; in the test with HeLa cells, 74.5%; in test [3] (setting [8]), 60.2%; in test [3] (24 h) it was 10%. The 50% inhibitory concentration (IC50) is 2400 nM in test [1] (setting [6]); 6600 nM in test [2] (setting [7]); 1000 nM in test [4] (Homo sapiens, A2780C/P); 1000 nM in test [5] (Homo sapiens). Also, the activity at 1 µM in test [3] is 58.1%.

As to `COc1ccc2c(CCc3ccc(Cl)cc3)c3[n+](cc2c1OC)CCc1cc2c(cc1-3)OCO2` [NAX014, 13-[2-(4-chlorophenyl)ethyl]-9,10-dimethoxy-5,6-dihydrobenzo[g]-1,3-benzodioxolo[5,6-a]quinolizinium iodide], the activity at 1 µM in the test with HeLa cells (setting [8]) worked out at 59.4%; in the test with HeLa cells it was 92.1%. Besides, the activity at 10 µM with HeLa cells (setting [8]) turned out to be 45.4%; in the test on HeLa cells, 71.9%; in test [3] (setting [8]), 15.4%; in test [3] (24 h) it was 49.5%. Besides, the IC50 in test [1] (setting [6]) was 1800 nM; in test [2] (setting [7]), 5800 nM; in test [4] (Homo sapiens, A2780C/P), 1000 nM; in test [5] (Homo sapiens), 1400 nM.

With `COc1ccc2c(CCC(c3ccccc3)c3ccccc3)c3[n+](cc2c1OC)CCc1cc2c(cc1-3)OCO2` [NAX018, 13-(3,3-diphenylpropyl)-9,10-dimethoxy-5,6-dihydrobenzo[g]-1,3-benzodioxolo[5,6-a]quinolizinium iodide], the activity at 1 µM in the test with HeLa cells (setting [8]) amounted to 45.8%; in the test with HeLa cells, 64%; in test [3], 68.2%. The activity at 10 µM in the test with HeLa cells (setting [8]) was 11.3%; in the test with HeLa cells, 40.6%; in test [3] (setting [8]), 13.7%; in test [3] (24 h) it was 30.6%. Moreover, the IC50 in test [1] (setting [6]) was found to be 660 nM; in test [2] (setting [7]), 4000 nM; in test [4] (Homo sapiens, A2780C/P), 1000 nM; in test [5] (Homo sapiens), 400 nM.

On to `COc1ccc2c(CCc3c[nH]c4ccccc34)c3[n+](cc2c1OC)CCc1cc2c(cc1-3)OCO2` [NAX019, 13-[2-(indol-3-yl)ethyl]-9,10-dimethoxy-5,6-dihydrobenzo[g]-1,3-benzodioxolo[5,6-a]quinolizinium iodide], for which the activity at 10 µM with HeLa cells (setting [8]) was determined as 33.5%; in the test with HeLa cells, 62.8%; in test [3] (setting [8]) it was 32.1%; in test [3] (24 h), 6%.

On to `COc1ccc2c(CC(=O)n3ccc4cc(Cl)ccc43)c3[n+](cc2c1OC)CCc1cc2c(cc1-3)OCO2` [NAX030, 13-[(5-chloroindol-1-yl)carbonylmethyl]-9,10-dimethoxy-5,6-dihydrobenzo[g]-1,3-benzodioxolo[5,6-a]quinolizinium iodide], for which the IC50 in test [4] (Homo sapiens, A2780C/P) was found to be 2500 nM; in test [5] (Homo sapiens), 4500 nM.

`N.N.[Cl][Pt][Cl]` [cDDP, cis-diaminedichloroplatinum, reference compound]: the IC50 in test [1] (C13* cells, 72 hrs exposure) was 17000 nM; in test [2] (2008 cells, 72 hrs exposure), 3600 nM; in test [4], 20000 nM; in test [5], 2000 nM.

(Values after patent publication US8188109B2, “Benzoquinolizinium salt derivatives as anticancer agents” (Naxospharma S.r.l., priority 2009, dated 2012).)
